Reference: PubChem BioAssay (NCI)
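Results reflect a 48-hour exposure of cells in 96-well plates to compound at five concentrations. GI50 is the concentration that inhibits growth by half. TGI denotes the concentration required for complete inhibition of growth.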

Experiments:
Assay in all cases: NCI anticancer screen, dose series, 48 h
786-0 renal = system: 786-0 renal
A498 renal = system: A498 renal
A549 NSCLC = system: A549 NSCLC
ACHN renal = system: ACHN renal
BT-549 breast = system: BT-549 breast
CAKI-1 renal = system: CAKI-1 renal
COLO 205 colon = system: COLO 205 colon
DU-145 prostate = system: DU-145 prostate
HCC-2998 colon = system: HCC-2998 colon
HCT-116 colon = system: HCT-116 colon
HCT-15 colon = system: HCT-15 colon
HL-60(TB) leukemia = system: HL-60(TB) leukemia
HOP-62 NSCLC = system: HOP-62 NSCLC
HOP-92 NSCLC = system: HOP-92 NSCLC
HS 578T breast = system: HS 578T breast
HT29 colon = system: HT29 colon
IGROV1 ovarian = system: IGROV1 ovarian
K-562 leukemia = system: K-562 leukemia
KM12 colon = system: KM12 colon
LOX IMVI melanoma = system: LOX IMVI melanoma
M14 melanoma = system: M14 melanoma
MALME-3M melanoma = system: MALME-3M melanoma
MCF7 breast = system: MCF7 breast
MDA-MB-231 breast = system: MDA-MB-231 breast
MDA-MB-435 = system: MDA-MB-435
MOLT-4 leukemia = system: MOLT-4 leukemia
NCI-H226 lung = system: NCI-H226 lung
NCI-H23 lung = system: NCI-H23 lung
NCI-H460 lung = system: NCI-H460 lung
NCI-H522 lung = system: NCI-H522 lung
NCI/ADR-RES ovarian = system: NCI/ADR-RES ovarian
OVCAR-3 ovarian = system: OVCAR-3 ovarian
OVCAR-4 ovarian = system: OVCAR-4 ovarian
OVCAR-5 ovarian = system: OVCAR-5 ovarian
OVCAR-8 ovarian = system: OVCAR-8 ovarian
PC-3 prostate = system: PC-3 prostate
RPMI-8226 leukemia = system: RPMI-8226 leukemia
RXF 393 renal = system: RXF 393 renal
SF-268 CNS = system: SF-268 CNS
SF-295 CNS = system: SF-295 CNS
SF-539 CNS = system: SF-539 CNS
SK-MEL-2 melanoma = system: SK-MEL-2 melanoma
SK-MEL-28 melanoma = system: SK-MEL-28 melanoma
SK-MEL-5 melanoma = system: SK-MEL-5 melanoma
SK-OV-3 ovarian = system: SK-OV-3 ovarian
SN12C renal = system: SN12C renal
SNB-19 CNS = system: SNB-19 CNS
SNB-75 CNS = system: SNB-75 CNS
SR leukemia = system: SR leukemia
SW-620 colon = system: SW-620 colon
T-47D breast = system: T-47D breast
TK-10 renal = system: TK-10 renal
U251 CNS = system: U251 CNS
UACC-257 melanoma = system: UACC-257 melanoma
UACC-62 melanoma = system: UACC-62 melanoma
UO-31 renal = system: UO-31 renal

**Q.** What does the source list for `COc1cc(-c2nn(-c3cccc(NC(=O)Nc4cccc(C(F)(F)F)c4)c3)cc2-c2ccncc2)ccc1Cl`?
**A.** GI50 (786-0 renal): 1120 nM; TGI (786-0 renal): 3170 nM; GI50 (A498 renal): 609 nM; TGI (A498 renal): 3030 nM; GI50 (A549 NSCLC): 723 nM; TGI (A549 NSCLC): 14500 nM; GI50 (ACHN renal): 371 nM; TGI (ACHN renal): 13600 nM; GI50 (BT-549 breast): 1230 nM; TGI (BT-549 breast): 4030 nM; GI50 (CAKI-1 renal): 952 nM; TGI (CAKI-1 renal): 3100 nM; GI50 (COLO 205 colon): 588 nM; TGI (COLO 205 colon): 1430 nM; GI50 (DU-145 prostate): 1360 nM; TGI (DU-145 prostate): 22800 nM; GI50 (HCC-2998 colon): 1380 nM; TGI (HCC-2998 colon): 4710 nM; GI50 (HCT-116 colon): 608 nM; TGI (HCT-116 colon): 6090 nM; GI50 (HCT-15 colon): 957 nM; TGI (HCT-15 colon): 10800 nM; GI50 (HL-60(TB) leukemia): 756 nM; TGI (HL-60(TB) leukemia): 10100 nM; GI50 (HOP-62 NSCLC): 923 nM; TGI (HOP-62 NSCLC): 2880 nM; GI50 (HOP-92 NSCLC): 251 nM; TGI (HOP-92 NSCLC): 921 nM; GI50 (HS 578T breast): 1360 nM; TGI (HS 578T breast): 16600 nM; GI50 (HT29 colon): 775 nM; TGI (HT29 colon): 2090 nM; GI50 (IGROV1 ovarian): 920 nM; TGI (IGROV1 ovarian): 3240 nM; GI50 (K-562 leukemia): 386 nM; TGI (K-562 leukemia): 12100 nM; GI50 (KM12 colon): 422 nM; TGI (KM12 colon): 2020 nM; GI50 (LOX IMVI melanoma): 789 nM; TGI (LOX IMVI melanoma): 1650 nM; GI50 (M14 melanoma): 759 nM; TGI (M14 melanoma): 2160 nM; GI50 (MALME-3M melanoma): 845 nM; TGI (MALME-3M melanoma): 2180 nM; GI50 (MCF7 breast): 609 nM; TGI (MCF7 breast): 4700 nM; GI50 (MDA-MB-231 breast): 813 nM; TGI (MDA-MB-231 breast): 2230 nM; GI50 (MDA-MB-435): 794 nM; TGI (MDA-MB-435): 1980 nM; GI50 (MOLT-4 leukemia): 936 nM; TGI (MOLT-4 leukemia): 3480 nM; GI50 (NCI-H226 lung): 1210 nM; TGI (NCI-H226 lung): 14800 nM; GI50 (NCI-H23 lung): 769 nM; TGI (NCI-H23 lung): 3020 nM; GI50 (NCI-H460 lung): 478 nM; TGI (NCI-H460 lung): 2280 nM; GI50 (NCI-H522 lung): 451 nM; TGI (NCI-H522 lung): 1870 nM; GI50 (NCI/ADR-RES ovarian): 696 nM; TGI (NCI/ADR-RES ovarian): 3580 nM; GI50 (OVCAR-3 ovarian): 343 nM; TGI (OVCAR-3 ovarian): 1590 nM; GI50 (OVCAR-4 ovarian): 996 nM; TGI (OVCAR-4 ovarian): 13800 nM; GI50 (OVCAR-5 ovarian): 1520 nM; TGI (OVCAR-5 ovarian): 8410 nM; GI50 (OVCAR-8 ovarian): 739 nM; TGI (OVCAR-8 ovarian): 2700 nM; GI50 (PC-3 prostate): 244 nM; TGI (PC-3 prostate): 1550 nM; GI50 (RPMI-8226 leukemia): 241 nM; TGI (RPMI-8226 leukemia): 1830 nM; GI50 (RXF 393 renal): 798 nM; TGI (RXF 393 renal): 1950 nM; GI50 (SF-268 CNS): 1280 nM; TGI (SF-268 CNS): 5010 nM; GI50 (SF-295 CNS): 229 nM; TGI (SF-295 CNS): 926 nM; GI50 (SF-539 CNS): 958 nM; TGI (SF-539 CNS): 2560 nM; GI50 (SK-MEL-2 melanoma): 935 nM; TGI (SK-MEL-2 melanoma): 1940 nM; GI50 (SK-MEL-28 melanoma): 1060 nM; TGI (SK-MEL-28 melanoma): 3910 nM; GI50 (SK-MEL-5 melanoma): 622 nM; TGI (SK-MEL-5 melanoma): 1270 nM; GI50 (SK-OV-3 ovarian): 1700 nM; TGI (SK-OV-3 ovarian): 15400 nM; GI50 (SN12C renal): 817 nM; TGI (SN12C renal): 10500 nM; GI50 (SNB-19 CNS): 999 nM; TGI (SNB-19 CNS): 6260 nM; GI50 (SNB-75 CNS): 1130 nM; TGI (SNB-75 CNS): 4100 nM; GI50 (SR leukemia): 858 nM; TGI (SR leukemia): 2620 nM; GI50 (SW-620 colon): 767 nM; TGI (SW-620 colon): 9430 nM; GI50 (T-47D breast): 638 nM; TGI (T-47D breast): 11400 nM; GI50 (TK-10 renal): 1060 nM; TGI (TK-10 renal): 9260 nM; GI50 (U251 CNS): 467 nM; TGI (U251 CNS): 1230 nM; GI50 (UACC-257 melanoma): 746 nM; TGI (UACC-257 melanoma): 2090 nM; GI50 (UACC-62 melanoma): 627 nM; TGI (UACC-62 melanoma): 1480 nM; GI50 (UO-31 renal): 747 nM; TGI (UO-31 renal): 3040 nM
